{"source": "paper PMC11685127", "about": "“Pharmacokinetic/pharma-codynamic study of pralurbactam (FL058) combined with meropenem in a neutropenic murine thigh infection model” (Frontiers in Microbiology, 2024)", "key": {"[1]": {"test_system": "K. pneumoniae", "assay": "Susceptibility testing (MIC)", "assay_type": "cell-based", "conditions": "drug alone", "text": "(§1) The study used a total of […] strains of KPC-, NDM-, or OXA-producing Enterobacterales (three strains of K. pneumoniae and four strains of E. coli), which were provided by Microbiology Division, Institute of Antibiotics, Huashan Hospital, Fudan University. Quality control strains are selected for each bacteria.\n(§2) Supplementary Table 1 Susceptibility testing results of meropenem alone, pralurbactam alone, or meropenem with FL058 in combination against K. pneumoniae and E. coli"}, "[2]": {"test_system": "E. coli", "assay": "Susceptibility testing (MIC)", "assay_type": "cell-based", "conditions": "drug alone", "text": "as §1, §2"}, "[3]": {"test_system": "Escherichia coli", "assay": "Neutropenic murine thigh infection model, PK/PD Emax fitting", "assay_type": "in vivo", "conditions": "50 mg/kg meropenem alone q2h (without pralurbactam); strains 18-W40-096 and ATCC BAA-2452", "description": "(§3) Mice (SPF grade, female, 25–30 g, 6–7 weeks) were provided by Beijing Huafukang Biotechnology Co. The animal study was reviewed and approved by the Animal Ethics Committee of State Key Laboratory of Biotherapy, Sichuan University (approval letter No.: 20190923035). All experimental animals from the study were intraperitoneally injected with cyclophosphamide (solution using 0.9% sodium chloride injection to achieve a concentration of 15 mg/ml) at a dose of 150 mg/kg at 4 days and 1 day prior to the day of infection to form immunocompromised mouse models. The hair on both thighs of the mice was shaved off 2 h before inoculation. The injection site was disinfected with 75% alcohol before intramuscular injection and dried with skimmed cotton. The mouse was challenged by inoculum of 1 × 10^8 CFU/ml of the test strain via injection of 50 μl of bacterial solution into both thighs. The time was referred to as t = 0 h, 2 h after the mice were infected. The control mice were euthanized at this time to record the initial bacterial colonies by taking the thigh muscle. The specific dosage of pralurbactam or meropenem for each dosing regimen was intraperitoneally injected (t = 0 h). At 26 h after the mice were infected (t = 24 h), the mice (experimental group) in each dosage cohort were euthanized to record the bacterial load to calculate CFU change (Δlog10 CFU)."}, "[4]": {"test_system": "class A, C, and D β-lactamases", "design": "method as in Sharma et al., 2016", "conditions": "ref Sharma et al., 2016; cited from earlier work"}, "[5]": {"assay": "Free fraction in in vitro mouse plasma", "assay_type": "in vitro ADME"}, "[6]": {"test_system": "Escherichia coli", "conditions": "cited from earlier work"}, "[7]": {"conditions": "human, in vivo, cited from earlier work"}, "[8]": {"assay": "Single-dose intraperitoneal PK of pralurbactam in mice plasma (UPLC-MS/MS, one-compartment model, population PK)", "assay_type": "in vivo", "conditions": "for Dose proportionality of Cmax or AUCinf (PK linearity): 5-500 mg/kg ip, non-compartmental regression analysis", "text": "The ultra-high performance liquid chromatography-tandem mass spectrometry (UPLC-MS/MS) system consisted of an LC-30A UPLC (Shimadzu Corporation, Japan) equipped with an Atlantis® T3 (3 μm, 2.1 × 100 mm) column, liquidity, and the cleaning solution mixed with formic acid, ammonium acetate, and acetonitrile, an API5500 mass spectrometer (AB SCIEX, USA). The retention times of chromatographic peaks and mass-to-charge ratios were obtained by MRM scanning pralurbactam (m/z 383.2 → 303.0), meropenem (m/z 384.1 → 141.2), internal standards pralurbactam-D4 (m/z 387.3 → 307.1), and meropenem-D6 (m/z 390.1 → 147.2) for peak identification. The drug concentration in the samples was calculated using Watson LIMS (version 7.5).\nThe UPLC-MS/MS method used to measure pralurbactam and meropenem concentrations in mice plasma was validated accurately in terms of selectivity, interaction, matrix effect, calibration curve, linearity, precision, accuracy, recovery, and stability. […] At this LLOQ level, the intra- and inter-assay precision was 3.5%–9.0% and 6.3% for pralurbactam, 5.0%–10.7% and 14.3% for meropenem. The overall recovery of pralurbactam and meropenem was 81.2% and 58.6%, respectively, and the corresponding coefficient of variation (CV) was 8.0% and 5.4%. This assay method was applied to quantify pralurbactam and meropenem for PK study.\nThe administration method for pralurbactam or meropenem (dissolved in sterile water) is single-dose intraperitoneal injection. […] Five mice were randomly selected for anesthesia and orbital blood sampling at each time-point (0.083, 0.25, 0.5, 1, 2, 3, 4, and 6 h) after dosing. A blood sample (600–800 μl) was obtained from the mouse immediately. Each mouse selected for blood sampling at each time point was euthanized immediately. The concentrations of pralurbactam and meropenem in plasma samples were determined using the validated UPLC-MS/MS method. PK parameters (including non-compartmental parameter linear fitting and compartmental simulation) of pralurbactam and meropenem in plasma were calculated using Phoenix WinNonlin (version 8.1, Certara Corporation). The compartmental PK parameters of pralurbactam were used to calculate the fCmax, fAUC0–24, and %fT > CT. The free fraction of pralurbactam was 100% based on in vitro mouse plasma.\nIn this study, the PK parameters of pralurbactam were calculated for each dosage cohort using Phoenix WinNonlin software based on the mean plasma concentrations at each sampling point in mice. The mean values of the PK parameters were used to simulate the potential PK/PD indices. Another method, the PK parameters could be estimated by the population PK (PPK) model using NONMEM software based on the pooled plasma concentrations. The estimated typical values of Ke and V/F based on the population PK model of pralurbactam were generally consistent with the classical mean values of Ke (PPK: 2.34 h^1 vs. classical PK: 2.55 h^1) and V/F (PPK: 0.719 L vs. classical PK: 0.72 L)."}, "[9]": {"test_system": "Klebsiella pneumoniae", "assay": "Neutropenic murine thigh infection model, PK/PD Emax fitting", "assay_type": "in vivo", "conditions": "fixed 100 mg/kg q2h of meropenem; strains 17-R1-16, 20-W2-70, ATCC BAA-1705", "description": "as §3"}, "[10]": {"conditions": "mean of all dosage cohorts, classical one-compartment PK"}, "[11]": {"conditions": "population PK (PPK) model, NONMEM, typical value, pooled plasma concentrations"}, "[12]": {"conditions": "pralurbactam 5 mg/kg ip single dose, alone, one-compartment model"}, "[13]": {"conditions": "pralurbactam 50 mg/kg ip single dose, alone, one-compartment model"}, "[14]": {"conditions": "pralurbactam 50 mg/kg ip, combined with meropenem 100 mg/kg, one-compartment model"}, "[15]": {"conditions": "pralurbactam 250 mg/kg ip, combined with meropenem 100 mg/kg, one-compartment model"}, "[16]": {"conditions": "pralurbactam 500 mg/kg ip single dose, alone, one-compartment model"}}, "note": "Where two headings read alike, the source gives them in different places."}
{"compound": "C[C@@H](O)[C@H]1C(=O)N2C(C(=O)O)=C(S[C@@H]3CN[C@H](C(=O)N(C)C)C3)[C@H](C)[C@H]12", "note": "[Meropenem]", "values": [{"measurement": "MIC", "setting": "[1]; 17-R1-16 (KPC-2, CTX-M-14)", "result": "> 64", "unit": "µg/mL"}, {"measurement": "MIC", "setting": "[1]; 20-W2-70 (OXA-48)", "result": 32, "unit": "µg/mL"}, {"measurement": "MIC", "setting": "[1]; ATCC BAA-1705 (KPC-2)", "result": 16, "unit": "µg/mL"}, {"measurement": "MIC", "setting": "[2]; 18-W32-020 (NDM-5)", "result": 32, "unit": "µg/mL"}, {"measurement": "MIC", "setting": "[2]; 18-W39-088 (NDM-1)", "result": "> 64", "unit": "µg/mL"}, {"measurement": "MIC", "setting": "[2]; 18-W40-096 (NDM-1)", "result": 64, "unit": "µg/mL"}, {"measurement": "MIC", "setting": "[2]; ATCC BAA-2452 (NDM-1)", "result": 32, "unit": "µg/mL"}, {"measurement": "Growth inhibition in thigh model", "setting": "[3]", "result": "significant growth inhibition"}]}
{"compound": "N=C(N)NOCCONC(=O)[C@@H]1CC[C@@H]2CN1C(=O)N2OS(=O)(=O)O", "note": "[Pralurbactam]", "values": [{"measurement": "Activity against β-lactamases in vitro", "setting": "[4]", "result": "active"}, {"measurement": "Free fraction", "setting": "[5]", "result": 100, "unit": "%"}, {"measurement": "MIC", "setting": "[1]; 17-R1-16 (KPC-2, CTX-M-14)", "result": "> 64", "unit": "µg/mL"}, {"measurement": "MIC", "setting": "[1]; 20-W2-70 (OXA-48)", "result": 8, "unit": "µg/mL"}, {"measurement": "MIC", "setting": "[1]; ATCC BAA-1705 (KPC-2)", "result": 4, "unit": "µg/mL"}, {"measurement": "MIC", "setting": "[2]; 18-W32-020 (NDM-5)", "result": 2, "unit": "µg/mL"}, {"measurement": "MIC", "setting": "[2]; 18-W39-088 (NDM-1)", "result": 4, "unit": "µg/mL"}, {"measurement": "MIC", "setting": "[2]; 18-W40-096 (NDM-1)", "result": 4, "unit": "µg/mL"}, {"measurement": "MIC", "setting": "[2]; ATCC BAA-2452 (NDM-1)", "result": 4, "unit": "µg/mL"}, {"measurement": "Activity of pralurbactam alone", "setting": "[6]; ref Huang et al., 2024a", "result": "partial activity"}, {"measurement": "Inhibitory effect of pralurbactam alone", "setting": "[6]; ref in vitro susceptibility study (to be published)", "result": "notable inhibitory effects"}, {"measurement": "%fT > 1 mg/L", "setting": "[7]; iv", "result": 86, "unit": "%"}, {"measurement": "Safety, tolerance and PK profiles", "setting": "[7]", "result": "good safety, tolerance, and PK profiles"}, {"measurement": "%fT > 1 mg/L", "setting": "[8]; 50 mg/kg q2h pralurbactam intraperitoneally in mice", "result": 88, "unit": "%"}, {"measurement": "Dose proportionality of Cmax or AUCinf (PK linearity)", "setting": "[8]", "result": "linear"}, {"measurement": "Dose proportionality of Cmax or AUCinf (PK linearity)", "setting": "[8]; listed as pralurbactam", "result": "dose proportional"}, {"measurement": "Ka", "setting": "[8]; [10]", "result": 50.2, "unit": "h^1"}, {"measurement": "Ke", "setting": "[8]; [10]", "result": 2.55, "unit": "h^1"}, {"measurement": "V/F", "setting": "[8]; [10]", "result": 0.72, "unit": "L"}, {"measurement": "Ka", "setting": "[8]; median value of dosage cohorts, classical PK", "result": 26.0, "unit": "h^1"}, {"measurement": "Ka", "setting": "[8]; population PK (PPK) model, NONMEM, estimate", "result": 29.1, "unit": "h^1"}, {"measurement": "Ke", "setting": "[8]; [11]", "result": 2.34, "unit": "h^1"}, {"measurement": "V/F", "setting": "[8]; [11]", "result": 0.719, "unit": "L"}, {"measurement": "Ka", "setting": "[8]; [12]", "result": 27.4, "unit": "h^1"}, {"measurement": "Ke", "setting": "[8]; [12]", "result": 2.24, "unit": "h^1"}, {"measurement": "V/F", "setting": "[8]; [12]", "result": 0.77, "unit": "L"}, {"measurement": "Ka", "setting": "[8]; [13]", "result": 13.7, "unit": "h^1"}, {"measurement": "Ke", "setting": "[8]; [13]", "result": 3.83, "unit": "h^1"}, {"measurement": "V/F", "setting": "[8]; [13]", "result": 0.55, "unit": "L"}, {"measurement": "Ka", "setting": "[8]; [14]", "result": 24.5, "unit": "h^1"}, {"measurement": "Ke", "setting": "[8]; [14]", "result": 2.11, "unit": "h^1"}, {"measurement": "V/F", "setting": "[8]; [14]", "result": 0.79, "unit": "L"}, {"measurement": "Ka", "setting": "[8]; [15]", "result": 26.0, "unit": "h^1"}, {"measurement": "Ke", "setting": "[8]; [15]", "result": 1.93, "unit": "h^1"}, {"measurement": "V/F", "setting": "[8]; [15]", "result": 0.91, "unit": "L"}, {"measurement": "Ka", "setting": "[8]; [16]", "result": 159.4, "unit": "h^1"}, {"measurement": "Ke", "setting": "[8]; [16]", "result": 2.64, "unit": "h^1"}, {"measurement": "V/F", "setting": "[8]; [16]", "result": 0.57, "unit": "L"}, {"measurement": "Pralurbactam dose in the combination that inhibits growth of all test strains", "setting": "[9]", "result": "at least 25 mg/kg"}]}
